Laboratory results as given in patent publication US20240409536A1, “COMPOUNDS AND METHODS FOR MODULATING SPLICING” (REMIX THERAPEUTICS INC., priority 2021, published 2024).

Tests used:
HiBiT-tagged HTT protein = test: HiBiT protein abundance assay, HTT (K562 HiBiT knock-in cells); type: cell-based, human; conditions: 24 hours
How it was run: (§1)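 Luminescent readout of HiBiT-tagged endogenous protein after lysis, following 24 h compound exposure of knock-in K562 lines at 37 °C. Ten 3-fold concentrations from 10 μM final, DMSO ≤0.25%. Four-parameter logistic fit of normalized response gives concentration halving abundance (IC50).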

MYB mRNA = test: Splicing RT-qPCR assay, MYB canonical (CJ) and alternative (AJ) junction mRNA; type: cell-based; conditions: Homo sapiens, A673 or K562 cells, 24 hours; for IC50: decrease in canonical junction mRNA; for AC50: increase in alternative junction mRNA
How it was run: (§2)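 Canonical and alternative junction mRNAs measured by cell-lysate one-step RT-qPCR, normalized to PPIA in A673 or GAPDH/GUSB in K562. Cells received compound for 24 h at 37 °C, 5% CO2, 11-point 3-fold series from 10 uM final top dose, DMSO at most 0.25%.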

HiBiT-tagged MYB protein = test: HiBiT protein abundance assay, MYB (K562 HiBiT knock-in cells); type: cell-based, human; conditions: 24 hours
How it was run: as §1

HTT mRNA = test: Splicing RT-qPCR assay, HTT canonical (CJ) and alternative (AJ) junction mRNA; type: cell-based; conditions: Homo sapiens, A673 or K562 cells, 24 hours; for IC50: decrease in canonical junction mRNA; for AC50: increase in alternative junction mRNA
How it was run: as §2

SMILES | IC50 (HiBiT-tagged HTT protein) [nM] | IC50 (MYB mRNA) [nM] | AC50 (MYB mRNA) [nM] | IC50 (HiBiT-tagged MYB protein) [nM] | IC50 (HTT mRNA) [µM] | AC50 (HTT mRNA) [µM]
Cc1cn2cc(NC(=O)c3ccc([C@@]45CCNCC4C5)c4nccnc34)cc(F)c2n1 (stereo in doubt) [Compound 248, 8-{3-azabicyclo[4.1.0]heptan-6-yl}-N-{8-fluoro-2-methylimidazo[1,2-a]pyridin-6-yl}quinoxaline-5-carboxamide 2,2,2-trifluoroacetate] | 1000 to 10000 | 100 to 1000 | 100 to 1000 | 100 to 1000 | 1 to 10 | > 10
Cc1cn2cc(NC(=O)c3ccc(N4CCNCC4)c4nccnc34)cc(F)c2n1 [Compound 111] | 100 to 1000 | 100 to 1000 | 100 to 1000 | < 100 | 1 to 10 | 1 to 10
Cc1cn2nc(NC(=O)c3ccc(C4CCNCC4)c4ccnnc34)cc(C)c2n1 [Compound 113] | 1000 to 10000 | 1000 to 10000 | 100 to 1000 | 1000 to 10000 | 1 to 10 | 1 to 10
Cn1cc2ccc(NC(=O)c3ccc(N4CCNCC4)c4ccnnc34)cc2n1 [Compound 115] | > 10000 | > 10000 | > 10000 | > 10000 | > 10 | > 10
Cn1cc2c(F)cc(NC(=O)c3ccc(N4CCNCC4)c4ccnnc34)cc2n1 [Compound 116] | > 10000 | > 10000 | > 10000 | > 10000 | > 10 | > 10
Cc1nc2c(F)cc(NC(=O)c3ccc(N4CCNCC4)c4ccnnc34)cc2s1 [Compound 118] | 100 to 1000 | 100 to 1000 | 100 to 1000 | < 100 | 0.1 to 1 | 0.1 to 1
Cc1cn2cc(NC(=O)c3ccc(N4CCNCC4)c4ccnnc34)c(C)cc2n1 [Compound 119] | 1000 to 10000 | 1000 to 10000 | 1000 to 10000 | 100 to 1000 | 1 to 10 | 1 to 10
Cc1cn2cc(NC(=O)c3ccc(N4CCNCC4)c4ccnnc34)ncc2n1 [Compound 120] | > 10000 | 100 to 1000 | 100 to 1000 | 100 to 1000 | > 10 | > 10
CNC1CCN(c2ccc(C(=O)Nc3cc(F)c4nc(C)cn4c3)c3nc(OCCOC)ccc23)C1 (stereo not drawn) [Compound 234] | 1000 to 10000 | 100 to 1000 | 100 to 1000 | < 100 | 1 to 10 | 1 to 10
CN[C@@H]1CCN(c2ccc(C(=O)Nc3cc(F)c4nc(C)cn4c3)c3nnccc23)C1 [Compound 238, (R)—N-(8-fluoro-2-methylimidazo[1,2-a]pyridin-6-yl)-5-(3-(methylamino)pyrrolidin-1-yl)cinnoline-8-carboxamide] | 100 to 1000 | < 100 | < 100 | < 100 | 1 to 10 | 1 to 10
CN[C@H]1CCN(c2ccc(C(=O)Nc3cc(F)c4nc(C)cn4c3)c3nnccc23)C1 [Compound 239, (S)—N-(8-fluoro-2-methylimidazo[1,2-a]pyridin-6-yl)-5-(3-(methylamino)pyrrolidin-1-yl)cinnoline-8-carboxamide] | 100 to 1000 | < 100 | 100 to 1000 | < 100 | 1 to 10 | 1 to 10
Cc1cn2cc(NC(=O)c3ccc(C4=CCNCC4)c4nccnc34)cc(F)c2n1 [Compound 240, N-{8-fluoro-2-methylimidazo[1,2-a]pyridin-6-yl}-8-(1,2,3,6-tetrahydropyridin-4-yl)quinoxaline-5-carboxamide] | < 100 | < 100 | 100 to 1000 | < 100 | < 0.1 | 0.1 to 1
